The nature of one series: in vitro. The settings on record: PAMPA, pH 7.4. For orientation: The PAMPA barrier holds no transporters, so it reflects passive diffusion.
Series [1] can be described thus: physchem. The settings on record: JP2 fluid, pH 6.8.
Series [2] is described as follows: physchem. The conditions noted are these: buffer, pH 7.4.
The conditions of series [3]: mouse, in vivo, po, 30 mg/kg, 0.75 h.
The nature of the next series: cells. The conditions noted are these: Homo sapiens, NIH3T3, 120 h.
A short description of a further series: in vivo. The conditions noted are these: ICR, mouse, plasma, po, 30 mg/kg.
The nature of a further series: animal or person. The conditions noted are these: Mus musculus, Balb/c, NIH3T3, po, 6 h, read-out: INH.

Converted amounts (≈) assume the structure as drawn.

As for `COc1cc(Nc2ncc(CCc3c(F)c(OC)cc(OC)c3Cl)cn2)ccc1N1CCC(N2CCN(C)CC2)CC1`, in “in vitro”, the Papp (in general, the rate of passage across a membrane or cell layer, normalised by area and donor concentration) at 2 h was determined as 19.4 ×10⁻⁶ cm/s. Besides, the solubility – broadly, the concentration that dissolves in the medium under given conditions – at 20 h, 10000 µM in “physchem [1]” was found to be 12 µM (≈ 7.19 µg/mL). Also, the logD – broadly, the decadic logarithm of the distribution of all forms, ionised or not, between an organic phase and buffer at a given pH – in “physchem [2]” turned out to be 3.5.
For `CCNS(=O)(=O)c1ccccc1Nc1nc(Nc2ccc(N3CCC(N4CCN(C)CC4)CC3)c(OC)c2)ncc1NC(=O)c1cc(OC)cc(OC)c1`, the CL in series [3] is > 600 mL/min/kg. Moreover, in the series “cells”, the IC50 (usually the concentration that gives 50% inhibition) was 99 nM. In “in vivo”, this compound displayed a concentration at 6 h of 98.2 nM. In the series “in vitro”, this compound returned an apparent permeability (Papp) at 2 h of 1.4 ×10⁻⁶ cm/s. Also, in “physchem [1]”, the solubility at 20 h, 10000 µM was < 1 µM. The logD in “physchem [2]” was > 3.9.
In the case of `COc1cc(CCc2cnc(Nc3ccc(N4CCC(N5CCN(C)CC5)CC4)c(OC)c3)nc2)c(F)c(OC)c1`, in “in vitro”, the Papp at 2 h was 24.4 ×10⁻⁶ cm/s. In “physchem [1]”, the solubility at 20 h, 10000 µM was ≥ 100 µM. This compound also yielded a logD in “physchem [2]” of 3.2.
Take `COc1cc(OC)cc(OCc2cnc(Nc3ccc(N4CCC(N5CCN(C)CC5)CC4)c(OC)c3)nc2)c1`: in “in vitro”, the Papp at 2 h is > 30 ×10⁻⁶ cm/s. The solubility at 20 h, 10000 µM in “physchem [1]” is ≥ 100 µM. The same compound yielded a logD in the series “physchem [2]” of 3.4.
The like results for `COc1cc(COc2cnc(Nc3ccc(N4CCC(N5CCN(C)CC5)CC4)c(OC)c3)nc2)cc(OC)c1` were, in that order, 18.5 ×10⁻⁶ cm/s, ≥ 100 µM and 3.2.
`CCNS(=O)(=O)c1ccccc1Nc1nc(Nc2ccc(N3CCC(N4CCN(C)CC4)CC3)c(OC)c2)ncc1CCc1cc(OC)cc(OC)c1`: the IC50 in “cells” is 34 nM. In “in vitro”, this compound displayed a Papp at 2 h of 1.8 ×10⁻⁶ cm/s. For the same compound, the solubility at 20 h, 10000 µM in “physchem [1]” is < 1 µM. Besides, the logD in “physchem [2]” was > 4.8.
Turning to `COc1cc(CCc2cnc(Nc3ccc(N4CCC(N5CCN(C)CC5)CC4)c(OC)c3)nc2)cc(OC)c1`, the CL in series [3] was 227 mL/min/kg. In “in vivo”, this compound came in with a concentration at 6 h of 1120 nM. The compound further yielded an apparent permeability coefficient (Papp) at 2 h in the series “in vitro” of 15.1 ×10⁻⁶ cm/s. Further, in “physchem [1]”, the solubility at 20 h, 10000 µM is ≥ 100 µM. In “physchem [2]”, this compound yielded a logD of 3.5. In addition, the inhibition in vivo at 30 mg/kg in “animal or person” stood at 21%.
Take `COc1cc(OC)cc(C(=O)N(C)c2cnc(Nc3ccc(N4CCC(N5CCN(C)CC5)CC4)c(OC)c3)nc2)c1`: the Papp at 2 h in “in vitro” came out at 3.7 ×10⁻⁶ cm/s. The solubility at 20 h, 10000 µM in “physchem [1]” is ≥ 100 µM. Besides, the logD in “physchem [2]” turned out to be 1.8.
Turning to `COc1cc(OC)cc(C(=O)Nc2cnc(Nc3ccc(N4CCC(N5CCN(C)CC5)CC4)c(OC)c3)nc2)c1`, the Papp at 2 h in the series “in vitro” is < 2.9 ×10⁻⁶ cm/s. For the same compound, the solubility at 20 h, 10000 µM in “physchem [1]” was ≥ 100 µM. The compound also registered a logD in the series “physchem [2]” of 2.8.
For `COc1cc(Nc2ncc(CCc3c(Cl)c(OC)cc(OC)c3Cl)cn2)ccc1N1CCC(N2CCN(C)CC2)CC1`, in the series “in vitro”, the Papp at 2 h was found to be 18.7 ×10⁻⁶ cm/s. This compound showed a solubility at 20 h, 10000 µM in “physchem [1]” of 5 µM (≈ 3.08 µg/mL). In addition, the logD in “physchem [2]” was 4.4.
`COc1cc(OC)cc(C(=O)Nc2cnc(Nc3ccc(N4CCC(N5CCN(C)CC5)CC4)c(OC)c3)nc2NCCS(C)(=O)=O)c1`: in the series “in vitro”, the apparent permeability (Papp) at 2 h was < 0.2 ×10⁻⁶ cm/s. Also, in “physchem [1]”, the solubility at 20 h, 10000 µM is ≥ 100 µM. The same compound had a logD in the series “physchem [2]” of 1.8.
The like results for `COc1cc(OC)cc(C(=O)Nc2cnc(Nc3ccc(N4CCC(N5CCN(C)CC5)CC4)c(OC)c3)nc2Nc2ccccc2)c1` were, in that order, 0.4 ×10⁻⁶ cm/s, 36 µM (≈ 23.5 µg/mL) and 3.7.
For `COc1cc(CNc2cnc(Nc3ccc(N4CCC(N5CCN(C)CC5)CC4)c(OC)c3)nc2)cc(OC)c1` the same measures were 18.1 ×10⁻⁶ cm/s, ≥ 100 µM and 2.9.

The record behind these values is ChEMBL document CHEMBL4715898, “Synthesis and structure-activity relationships of pyrimidine derivatives as potent and orally active FGFR3 inhibitors with both increased systemic exposure and enhanced in vitro potency” (Bioorg Med Chem, 2021).
